Data as given in US20250197425A1, “2,6,9-TRISUBSTITUTED PURINES” (ASTRAZENECA AB, priority 2022, published 2025).
In brackets after ≈: the same amount, converted by molar mass.

What was measured:
OVCAR3 cells [1] = experiment: Cellular proliferation EdU assay, OVCAR3; type: cell-based, human; conditions: Homo sapiens, OVCAR-3, 48 h, EdU assay, two days; read-out: OVCAR3 IC50
Method in brief: (§1)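 MCF-7 (800 cells/well) and OVCAR3 (1200 cells/well) in RPMI with 10% FBS exposed to compounds for two days at 37 °C.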

MCF-7 cells = experiment: Cellular proliferation EdU assay, MCF-7; type: cell-based; conditions: Homo sapiens, MCF7, 48 h, EdU assay, two days; read-out: MCF-7 IC50
Method in brief: as §1

[2] = CLint assessment in human liver microsomes (HLM); type: in vitro ADME; conditions: 1 μM
Method in brief: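 Microsomes preincubated 8 min with NADPH, then compound added and incubated 30 min at 37° C. Remaining compound measured by LC-MS/MS. t1/2 and CLint calculated, with CLint scaled to incubation volume per mg microsomal protein.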

[3] = system: 97 targets (GPCRs, ion channels, transporters, enzymes, kinases); experiment: Secondary pharmacology panel (Eurofins CEREP); conditions: compared with Compound 6
Method: Secondary pharmacology assays were performed at Eurofins CEREP using standard experimental techniques. Specifically, radioligand binding assays were used to assess the ability of test compounds to interact with G-protein coupled receptors (GPCRs), ion channels, and transmembrane transporters. Assays measuring substrate turnover or phosphorylation by isolated proteins were used for enzyme and kinase targets, allowing direct determination of the mode of action of the tested compounds.

[4] = Aqueous thermodynamic solubility, shake-flask; type: physicochemical; conditions: aqueous phosphate buffer, 25 °C, pH 7.4, aqueous buffer, thermodynamic from solid, phosphate buffer 0.1 M, pH 7.4, 24 hours
Method in brief: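 Dried compound (after DMSO evaporation) was equilibrated in 0.1 M phosphate buffer pH 7.4 with stirring for 24 h at 25° C. Undissolved material was removed by double centrifugation, and the supernatant was diluted in water and quantified by UPLC/MS/MS.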

OVCAR3 cells [5] = experiment: Cell proliferation CyQUANT assay, OVCAR3; type: cell-based; conditions: Homo sapiens, OVCAR-3, 168 h; CyQUANT cell counts, 7 days
Method: (§2) An imaging-based assay was used to investigate changes in cell number in OVCAR3 cells (CCNE1-amplified ovarian cancer cell line) and SKOV3 cells (non-amplified ovarian cancer cell line) treated with test compounds.
(§3) Cells were plated in 384 well plates (Perkin-Elmer 6057300) in RPMI-1640/10% FBS/1× L-Glu at 500 cells per well in 30 μL and incubated with test compound at 37° C. and 5% CO2 for 7 days. Cells were then stained using the CyQuant Direct Cell Proliferation Assay Kit (Thermo Cat #C7026) in accordance with the kit protocol. The stained cells were imaged using an Operetta high content imager to generate cell counts and IC50 values were calculated relative to DMSO controls.

SKOV3 cells = experiment: Cell proliferation CyQUANT assay, SKOV3; type: cell-based; conditions: Homo sapiens, SK-OV-3, 168 h; CyQUANT cell counts, 7 days
Method: as §2, §3

| Compound | IC50 (OVCAR3 cells [1]) [nM] | IC50 (MCF-7 cells) [nM] | HLM CLint [2] [µL/min/mg] | secondary pharmacology profile [3] | solubility at 24 h [4] [µM] | IC50 (OVCAR3 cells [5]) [nM] | IC50 (SKOV3 cells) [nM] |
| --- | --- | --- | --- | --- | --- | --- | --- |
| CCn1cnc2c(N[C@H]3CCN(S(=O)(=O)NC)C3)nc(-c3cccc4c3CC[C@]4(C)O)nc21 (relative stereo) [Example 3, (S)-3-((9-ethyl-2-((R*)-1-hydroxy-1-methyl-2,3-dihydro-1H-inden-4-yl)-9H-purin-6-yl)amino)-N-methylpyrrolidine-1-sulfonamide] | 457 | 969 | 45.2 | broadly similar secondary pharmacology to Compound 6 | 48 (≈ 22.6 µg/mL) |  |  |
| CCNS(=O)(=O)N1CC[C@H](Nc2nc(N[C@@H](CC)[C@@H](C)O)nc3c2ncn3C)C1 [Example 53, (S)—N-ethyl-3-((2-(((2R,3S)-2-hydroxypentan-3-yl)amino)-9-methyl-9H-purin-6-yl)amino)pyrrolidine-1-sulfonamide] | 616 | 1430 |  |  |  | 373 | 10700 |
| CCNS(=O)(=O)N1CC[C@H](Nc2nc(N[C@@H](CO)C3CC3)nc3c2ncn3C)C1 [Example 19, (S)-3-((2-(((R)-1-cyclopropyl-2-hydroxyethyl)amino)-9-methyl-9H-purin-6-yl)amino)-N-ethylpyrrolidine-1-sulfonamide] | 276 | 538 |  |  |  | 201 | 4040 |
| CCn1cnc2c(N[C@@H]3CN(S(=O)(=O)c4ncc[nH]4)C[C@H]3F)nc(N[C@@H](CO)C3CC3)nc21 (relative stereo) [Example 17, (R)-2-((6-(((3R*,4R*)-1-((1H-imidazol-2-yl)sulfonyl)-4-fluoropyrrolidin-3-yl)amino)-9-ethyl-9H-purin-2-yl)amino)-2-cyclopropylethan-1-ol] | 44 |  | 46 |  | 280 (≈ 134 µg/mL) | 53 | 1160 |
